# Data as given in PMC4015282, “Transcriptional comparison of the filamentous fungus Neurospora crassa growing on three major monosaccharides D-glucose, D-xylose and L-arabinose” (Biotechnology for Biofuels, 2014).
# Legend:
# Assay type in all cases: cell-based
# Settings in all cases: 3 mM sugar; labelled compound
# [1] = molecular target: T1, GLT-1 (NCU01633) (Neurospora crassa, UniProt Q1K4S3); test: radiolabelled sugar uptake in recombinant yeast, […] min
# T1 construct: cDNA cloned in pRS426 shuttle vector (PGK1 promoter, GFP ORF, CYC1 terminator)
# T1 sequence (Q1K4S3 1-532): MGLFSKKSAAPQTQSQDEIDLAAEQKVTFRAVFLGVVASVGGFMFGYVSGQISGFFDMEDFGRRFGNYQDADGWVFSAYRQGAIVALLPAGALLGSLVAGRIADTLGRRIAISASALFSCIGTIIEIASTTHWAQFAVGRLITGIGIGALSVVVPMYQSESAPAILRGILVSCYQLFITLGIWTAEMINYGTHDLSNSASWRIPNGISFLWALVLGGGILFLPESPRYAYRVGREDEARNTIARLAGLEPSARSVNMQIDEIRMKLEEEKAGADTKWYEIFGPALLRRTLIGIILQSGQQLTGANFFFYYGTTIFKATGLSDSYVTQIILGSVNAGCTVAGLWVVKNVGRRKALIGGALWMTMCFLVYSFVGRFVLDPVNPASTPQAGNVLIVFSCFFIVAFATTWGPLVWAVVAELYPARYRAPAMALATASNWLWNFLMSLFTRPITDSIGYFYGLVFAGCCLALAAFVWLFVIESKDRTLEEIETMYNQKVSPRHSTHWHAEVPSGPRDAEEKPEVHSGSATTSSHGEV
# [2] = molecular target: T2, LAT-1 (NCU02188) (Neurospora crassa, UniProt Q7S4D2); test: as above
# T2 construct: expressed from pRS426-type vector in hexose-transporter-null S. cerevisiae EBY.VW4000
# T2 sequence (Q7S4D2 1-518): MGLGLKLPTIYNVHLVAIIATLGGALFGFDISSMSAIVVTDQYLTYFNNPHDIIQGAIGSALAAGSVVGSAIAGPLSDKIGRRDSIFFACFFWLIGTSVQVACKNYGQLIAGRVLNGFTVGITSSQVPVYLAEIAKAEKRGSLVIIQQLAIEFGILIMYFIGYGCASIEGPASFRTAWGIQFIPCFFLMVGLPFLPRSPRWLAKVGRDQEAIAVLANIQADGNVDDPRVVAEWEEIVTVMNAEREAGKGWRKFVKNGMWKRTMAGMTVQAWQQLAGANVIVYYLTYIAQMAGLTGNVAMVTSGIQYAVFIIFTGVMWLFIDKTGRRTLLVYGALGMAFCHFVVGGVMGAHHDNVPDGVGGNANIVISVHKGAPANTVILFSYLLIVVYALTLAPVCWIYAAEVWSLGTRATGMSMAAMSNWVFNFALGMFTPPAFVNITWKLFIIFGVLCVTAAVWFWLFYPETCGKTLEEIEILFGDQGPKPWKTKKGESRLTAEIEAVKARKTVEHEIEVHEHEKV
# [3] = molecular target: T2, LAT-1 (NCU02188); test: radiolabelled sugar uptake in recombinant yeast, […] min; growth complementation
# [4] = molecular target: T1, GLT-1 (NCU01633); test: as above
structure (smiles),measurement,setting,value
OC1OC[C@@H](O)[C@H](O)[C@H]1O (stereo partly drawn) [D-xylose],"radiolabelled sugar uptake in recombinant yeast, 2 min",[1],D-glucose uptake was two orders of magnitude higher compared to that of D-xylose
OC1OC[C@H](O)[C@H](O)[C@H]1O (stereo partly drawn) [L-arabinose],"radiolabelled sugar uptake in recombinant yeast, 2 min",[2],the L-arabinose uptake rate was much higher than that of D-glucose
OC[C@H]1OC(O)[C@H](O)[C@@H](O)[C@@H]1O (stereo partly drawn) [D-glucose],"radiolabelled sugar uptake in recombinant yeast, 2 min; growth complementation",[3],"does complement growth of EBY.VW4000 strain on D-glucose, indicating this protein can transport D-glucose"
same,"radiolabelled sugar uptake in recombinant yeast, 2 min; growth complementation",[4],D-glucose uptake was two orders of magnitude higher compared to that of D-xylose
